{"source": "paper PMC6331757", "about": "“Optimization of a peptide extraction and LC–MS protocol for quantitative analysis of antimicrobial peptides” (Future Science OA, 2018)", "origin": "cited, not measured here", "system": "Gram-negative (e.g., Pseudomonas aeruginosa and Escherichia coli) and Gram-positive (e.g., Staphylococcus aureus) bacteria", "settings": "qualitative statement", "data": [{"sequence": "VRLIVAVRIWRR [AMP 1018, synthetic antimicrobial peptide 1018 (…); also used as internal standard]", "values": [{"measurement": "antibacterial activity (kills bacteria, disperses biofilms, inhibits bacterial swarming)", "result": "potent antibacterial"}]}]}
